Measured values reported in US7498406B2, “Substantially cell membrane impermeable compound and use thereof” (priority 1999, dated 2009).

What was measured:
HT1080 tumours = experiment: Tumour growth in mice, subcutaneous administration; format: in vivo, SCID mice; conditions: 10 mg per kg per day
Experimental: FIG. 25. Inhibition of human fibrosarcoma and murine Lewis lung tumour growth following systemic administration of GSAO. HT1080 or Lewis lung tumours were established in the proximal midline of female 7 to 9 week old SCID or C57Bl6/J mice, respectively. When the tumours were ˜0.1 cm^3 in volume the mice were randomised into two groups (n=5) and treated with either GSAA or GSAO at a dose of 10 mg per kg per day in 0.2 mL of PBS containing 100 mM glycine. The compounds were administered subcutaneously at a site distant from the tumour. Tumour volume and animal weight was measured every 3 days. The GSAO/GSAA HT1080 tumour volume ratio at day 17 of treatment was 0.29 (part A). The GSAO/GSAA Lewis lung tumour volume ratio at day 12 of treatment was 0.29 (part B). The data points and errors represent the mean and SE of the tumour volumes.
Female 7 to 9 week old SCID or C57Bl6/J mice were used (Massachusetts General Hospital, Boston, Mass.). Mice were held in groups of 3 to 5 at a 12 hour day and night cycle and were fed with animal chow and water ad libidum. […] The tumours were measured in two diameters and tumour volume was calculated using the relationship, tumour volume=a×b^2×0.52, where a is the longest and b the shortest diameters in cm. […] Tumour volume and animal weight was measured every 3 days. […]

BAE cells = experiment: Tritiated GSAO in cytosol (membrane permeability); format: in vitro ADME, bovine; conditions: 50 μM GSAO, 1 hour
Experimental: Human T cells (A3.01) or adherent BAE cells were incubated with complete medium containing 50 μM GSAO and ˜100,000 counts per, minute of tritiated GSAO for 1 or 72 hours. Tritiated GSAO was prepared exactly as described for GSAO except that glycine-2-^3H-glutathione (NEN, Boston, Mass.) was used in place of cold glutathione. The cells were washed and lysed by two cycles of freezing and thawing. The cytosolic constituents were collected by differential centrifugation (Ausbel et al., 2000) and the tritiated GSAO was measured. Only 0.5% of the total tritiated GSAO was found in the T cell cytosol and 0.04% in the BAE cytosol after 1 hour. Moreover, only 4.5% of the GSAO penetrated the T cell membrane after 72 hours of culture.

Human bone marrow cells = experiment: 12 day human bone marrow culture assay, granulocyte/macrophage colonies; format: cell-based; conditions: 12 days, 0 to 100 μM
Experimental: FIG. 20. Effect of GSAO on proliferation of bone marrow progenitor cells. Human bone marrow cells were incubated in semi-solid agar containing 20% BGS, 1 ng per mL IL-3 and 0 to 100 μM GSAA or GSAO for 12 days. Granulocyte/macrophage colonies of 40 or more cells were counted under an inverted microscope. The data points and errors represent the mean and SE of quadruplicate cultures.
GSAO reduced the number of granulocyte/macrophage colonies in a 12 day human bone marrow culture assay with an IC50 of ˜30 μM (FIG. 20). […] Human bone marrow cells (˜5×10^5 cells per mL) were added to semi-solid agar in DMEM containing 20% BCS, […] IL-3 and 0 to 100 μM GSAA or GSAO. The cultures were incubated for 12 days at 37° C. and 5% CO2 and clusters of 40 or more cells were counted under an inverted microscope according to Metcalf (1977).

BxPc3 = experiment: Viability of cultured cells, 72 hr; format: cell-based, human; conditions: 5% FCS, 0 to 1 mM
Experimental: (§1) FIG. 19. Effect of GSAO on proliferation of non-endothelial cells. 15,000 BxPC-3 (part A), HT1080 (part B), 3T3 (part C) or BVSM (part D) cells per well were seeded into gelatinised 24-well culture plates and allowed to attach for 24 hr. The media was then replaced with DMEM containing 0 to 1 mM GSAO or GSAA and either 5% BCS (part D) or 5% FCS (parts A, B and C). Cells were cultured for 72 hr and then dispersed and counted. The dotted lines indicate the cell number in control wells containing DMEM and 2% BCS (part D) or 2% FCS (parts A, B and C) which represented no to limited proliferation. The data points and errors represent the mean and range of duplicate wells.
(§2) BCE (Folkman et al. 1979), BAE, BxPC-3 (ATCC, Bethesda, Md.), HT1080 (Jiang et al., 1999), 3T3 (ATCC, Bethesda, Md.) and BVSM (Hogg et al., 1997) cells were harvested and cultured as indicated. […] Cells were cultured for 0 to 72 hr in 10% CO2 at 37° C. then dispersed in trypsin/EDTA (GibcoBRL, Granc Island, N.Y.), resuspended in Coulter balanced electrolyte solution and counted with a Z1 Coulter counter (Coulter Corp., Miami, Fla.) in all experiments there were two control wells containing DMEM with 1% GPS and either 5% BCS for BCE cells, 2% BCS for BAE and BVSM cells, or 2% FCS for BxPC-3, HT1080 and 3T3 cells. […]

HT1080 = experiment: Viability of cultured cells, 72 hr; format: cell-based, human; conditions: 5% FCS, 0 to 1 mM
Experimental: as §1, §2

Q: Which results are given for `NC(CCC(=O)NC(CSCC(=O)Nc1ccc([As]=O)cc1)C(=O)NCC(=O)O)C(=O)O` (stereo not drawn) [GSAO, 4-(N-(S-glutathionylacetyl)amino)-phenylarsenoxide]?
A: inhibition of the rate of fibrosarcoma tumour growth (HT1080 tumours; subcutaneous): ~70%; GSAO/GSAA HT1080 tumour volume ratio (HT1080 tumours; day 17 of treatment): 0.29; total tritiated GSAO found in the cytosol (BAE cells): 0.04%

Q: For `N[C@@H](CCC(=O)N[C@@H](CSCC(=O)Nc1ccc([As](=O)(O)O)cc1)C(=O)NCC(=O)O)C(=O)O` [GSAA, 4-(N-(S-glutathionylacetyl)amino)phenylarsonic acid, reference compound], which “IC50 for reduction of the number of granulocyte/macrophage colonies” value (Human bone marrow cells) is on record?
A: no effect on colony numbers

Q: What about the “Viability IC50” value (BxPc3) of the same compound?
A: no significant effect

Q: And the “Viability IC50” value (HT1080)?
A: no significant effect
